Experimental findings from patent US20120100555A1, “Synthesis And Use Of Fluorophore-Tagged Antimalarials” (priority 2009, published 2012) are described below.

In data set [1] the test system is Plasmodium falciparum parasites. The data set is described as follows: CM-CQ accumulation with chemo-sensitizers, flow cytometry. It counts as cell-based. Particulars: for effect of pre-treatment on CM-CQ accumulation in K1: K1 (CQ-resistant), 10 uM chemo-sensitizer 30 min, then 6 uM CM-CQ 10 hrs. Here is the method:
FIG. 8 is a graph showing the effects of chemo-sensitizers on coumarin-conjugated chloroquine (CM-CQ) accumulation in Plasmodium falciparum parasites. Data were obtained by flow cytometry.
(§1) Subsequently, 6 uM of Coumarin-Chloroquine (CM-CQ) was added to the samples for 10 hrs and left to incubate in the dark at 37° C. To ascertain the exact parasitemia of each condition, cultures in duplicate wells were stained with Hoechst just before flow cytometric analysis and fluorescence plate measurements. The proportion of CM-CQ-stained parasites was the ratio of the proportion of CM-CQ-stained infected erythrocyte culture over the proportion of Hoechst-positive erythrocytes.

The test system is the same in data set [2]. As to the kind of experiment: CM-CQ accumulation with chemo-sensitizers, fluorescent plate reader. It is filed as cell-based. Particulars: for effect of pre-treatment on CM-CQ accumulation in K1: K1 (CQ-resistant), 10 uM chemo-sensitizer 30 min, then 6 uM CM-CQ 10 hrs. Here is the method: FIG. 9 is a graph showing the effects of chemo-sensitizers on coumarin-conjugated chloroquine (CM-CQ) accumulation in Plasmodium falciparum parasites, obtained by spectrofluorometer plate readings.
as §1

Data set [3] has as its system P. falciparum, 3D7. The data set is described as follows: Mitochondria trans-membrane potential assay (JC-1). It is filed as cell-based, Plasmodium falciparum. Here is the method:
Plasmodium falciparum culture. […] Parasite cultures were maintained in 75 cm^2 or 125 cm^2 flasks using malaria culture media (MCM) consisting of RPMI 1640 supplemented with 0.5% (w/v) albumax I (Invitrogen), 0.005% (w/v) hypoxanthine, 0.03% (w/v) L-glutamate, 0.25% (w/v) gentamycin and 2.5% human erythrocytes. Flasks were gassed with 3% CO2, 4% O2 and 93% N2 and incubated at 37° C. in a dark incubator. Culture medium was replenished during subculturing on alternate days. Thin Giemsa smears were made to determine parasitemia before subculture and at the start of each experiment. Sorbitol synchronization (See Lambros, C., and Vanderberg, J. P. (1979) J Parasitol 65, 418-420) was carried out weekly to select for ring-stage parasites. Saponin enrichment (See Beaumelle, B. D., et al., (1987) J. Parasitol 73, 743-748) was carried out prior to staining with CaspaTag to liberate the parasites from host erythrocytes. […]
Flow Cytometric Analyses. Cell numbers and fluorescence intensity after staining with JC-1 were assayed by a flow cytometer (DAKO Cytomation Cyan ADP), equipped with an argon-ion laser tuned to 488 nm and a violet laser tuned to 405 nm. Green and red fluorescence was detected using 525 and 595 nm band-pass filters respectively. […] Between 10,000 to 20,000 infected erythrocytes or enriched parasites were analyzed from each sample and its respective duplicate to ensure reliability. […]

The test system of data set [4] is P. falciparum, 3D7. Particulars: low nanomolar concentrations of CQ, 8 hours. Here is the method: (§2) Plasmodium falciparum culture. […] Parasite cultures were maintained in 75 cm^2 or 125 cm^2 flasks using malaria culture media (MCM) consisting of RPMI 1640 supplemented with 0.5% (w/v) albumax I (Invitrogen), 0.005% (w/v) hypoxanthine, 0.03% (w/v) L-glutamate, 0.25% (w/v) gentamycin and 2.5% human erythrocytes. Flasks were gassed with 3% CO2, 4% O2 and 93% N2 and incubated at 37° C. in a dark incubator. Culture medium was replenished during subculturing on alternate days. Thin Giemsa smears were made to determine parasitemia before subculture and at the start of each experiment. Sorbitol synchronization (See Lambros, C., and Vanderberg, J. P. (1979) J Parasitol 65, 418-420) was carried out weekly to select for ring-stage parasites. Saponin enrichment (See Beaumelle, B. D., et al., (1987) J. Parasitol 73, 743-748) was carried out prior to staining with CaspaTag to liberate the parasites from host erythrocytes. Cultures of approximately 10% parasitemia were used, with parasites being in the […] (22-26 hours post-invasion) during the administration of inhibitor and drugs unless otherwise stated.

The test system of data set [5] is P. falciparum strains 3D7 (CQ-susceptible). As to the kind of experiment: Inhibitory concentration (IC50) determination, Hoechst staining and flow cytometry. It is filed as cell-based, Plasmodium falciparum. On the procedure: Parasitized cultures were incubated for 48 hours with various concentrations of the test compounds and, thereafter, parasitemia was determined using Hoechst staining and flow cytometric analyses.
as §2
Inhibitory concentration (IC50) determination. […] To determine parasitemia, cultures were stained with Hoechst 33342, as described above, and analyzed by flow cytometry.
Flow Cytometric Analyses. Cell numbers and fluorescence intensity after staining with JC-1 were assayed by a flow cytometer (DAKO Cytomation Cyan ADP), equipped with an argon-ion laser tuned to 488 nm and a violet laser tuned to 405 nm. Green and red fluorescence was detected using 525 and 595 nm band-pass filters respectively. The flow cytometer was adjusted for forward and side scattering to accommodate infected erythrocytes. Between 10,000 to 20,000 infected erythrocytes or enriched parasites were analyzed from each sample and its respective duplicate to ensure reliability. At least three independent experiments were performed unless otherwise stated.
On the technique in general: A flow cytometer gives signals particle by particle.

The mark [6] stands for this setting: 3D7, 48 hours, at the tested concentrations.

As for `CNCCCN1c2ccccc2CCc2ccccc21` [DSP, desipramine], the “effect of pre-treatment on CM-CQ accumulation in K1” value (“effect of pre-treatment” for short) in data set [1] and in data set [2] was “significantly increased” throughout.
As to `CN(C)CCCN1c2ccccc2Sc2ccc(Cl)cc21` [CPZ, chlorpromazine], the “effect of pre-treatment” value in data set [1] and in data set [2] was “significantly increased” each time.
As to `CCN(CC)CCCC(C)Nc1ccnc2cc(Cl)ccc12` (centres unmarked) [CQ, Chloroquine diphosphate], the “PCD features (JC-1)” value in the data set with P. falciparum, 3D7 [3] (low nanomolar concentrations of CQ, 8 hours) is “basal levels”. Further, in the data set with P. falciparum, 3D7 [4], the “PCD features (CaspaTag)” value is on record as “basal levels”.
In the case of `CN(C)CCC(c1ccc(Cl)cc1)c1ccccn1` (centres unmarked) [CPR, chlorpheneramine], the “effect of pre-treatment” value is recorded as “increase was also detected” in data set [1] and “significantly increased” in data set [2].
On the same counts, the results for `COc1ccc(CCN(C)CCCC(C#N)(c2ccc(OC)c(OC)c2)C(C)C)cc1OC` (centres unmarked) [VPM, verapamil] are “significantly increased” and “significantly increased”.
For `COc1ccc([C@@H]2Sc3ccccc3N(CCN(C)C)C(=O)[C@@H]2OC(C)=O)cc1` [DTZ, diltiazem], the “effect of pre-treatment” value in data set [1] and in data set [2] was “not” in each case.
As to `CC(C)NCC(O)COc1cccc2ccccc12` (centres unmarked) [PPL, propranolol], the “effect of pre-treatment” value in data set [1] and in data set [2] was “not” throughout.
With `CN(C)c1ccc2c(CC(=O)O)cc(=O)oc2c1` [CM, 7-dimethyl amino-4-coumarinacetic acid], in data set [5] (setting [6]), the cytotoxicity entry is reported as “not cytotoxic” and the “inhibitory effect on parasitemia” value was “no detectable inhibitory effect”.
Turning to `CC(CN1c2ccccc2Sc2ccccc21)N(C)C` (centres unmarked) [PMZ, promethazine], the “effect of pre-treatment” value in data set [1] was “significantly increased”; in data set [2], “increase was also detected”.
For `CCN(CCCCNc1ccnc2cc(Cl)ccc12)CC(=O)NCCNC(=O)Cc1cc(=O)oc2cc(N(C)C)ccc12` [CM-CQ], the “activity compared to chloroquine (FIG. 2)” value in data set [5] (3D7) is on record as “activity comparable to chloroquine”. Moreover, the IC50 in data set [5] (Plasmodium falciparum, read-out: IC50 (50% inhibitory concentration), 3D7, ring stage, 48 hours, parasitemia by Hoechst 33342 flow cytometry) worked out at 349 nM. In addition, the “proportion of parasites containing functional mitochondrion with transmembrane potential (ΔΨm) after treatment” value with P. falciparum, 3D7 [3] (JC-1 J-aggregates, dose-dependent decline from about 90% in uninduced cells) is roughly 60%. Moreover, the “CM-CQ accumulation, 3D7 compared to 7G8 and K1” value in data set [1] (6 uM CM-CQ 10 hrs, p<0.05) was “different levels”; in data set [2] (6 uM CM-CQ 10 hrs, p<0.001), “different levels”.
